{
  "source": "patent EP3035931B1",
  "about": "“COMPOSITION FOR REDUCING NERVOUS SYSTEM INJURY AND METHOD OF MAKING AND USE THEREOF” (Morehouse School of Medicine, priority 2013, dated 2015)",
  "key": {"[1]": {"biological_target": "T1, ASICs (Mus musculus, UniProt Q6NXK8)", "T1 sequence (Q6NXK8 1-526)": "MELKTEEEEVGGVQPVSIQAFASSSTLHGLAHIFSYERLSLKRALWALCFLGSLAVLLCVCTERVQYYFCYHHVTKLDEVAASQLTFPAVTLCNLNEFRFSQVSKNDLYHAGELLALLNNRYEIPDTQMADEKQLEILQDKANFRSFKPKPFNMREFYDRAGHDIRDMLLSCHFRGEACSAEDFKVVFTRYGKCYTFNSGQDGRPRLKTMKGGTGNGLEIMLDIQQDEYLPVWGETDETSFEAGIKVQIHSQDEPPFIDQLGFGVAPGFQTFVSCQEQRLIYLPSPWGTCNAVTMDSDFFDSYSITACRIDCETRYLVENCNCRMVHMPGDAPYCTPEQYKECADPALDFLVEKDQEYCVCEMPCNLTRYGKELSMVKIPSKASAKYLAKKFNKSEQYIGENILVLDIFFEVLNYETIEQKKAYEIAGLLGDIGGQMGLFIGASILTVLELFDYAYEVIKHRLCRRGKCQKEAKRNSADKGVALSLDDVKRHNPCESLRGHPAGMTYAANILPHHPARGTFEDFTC", "T1 sequence (Q925H0 1-512 partner)": "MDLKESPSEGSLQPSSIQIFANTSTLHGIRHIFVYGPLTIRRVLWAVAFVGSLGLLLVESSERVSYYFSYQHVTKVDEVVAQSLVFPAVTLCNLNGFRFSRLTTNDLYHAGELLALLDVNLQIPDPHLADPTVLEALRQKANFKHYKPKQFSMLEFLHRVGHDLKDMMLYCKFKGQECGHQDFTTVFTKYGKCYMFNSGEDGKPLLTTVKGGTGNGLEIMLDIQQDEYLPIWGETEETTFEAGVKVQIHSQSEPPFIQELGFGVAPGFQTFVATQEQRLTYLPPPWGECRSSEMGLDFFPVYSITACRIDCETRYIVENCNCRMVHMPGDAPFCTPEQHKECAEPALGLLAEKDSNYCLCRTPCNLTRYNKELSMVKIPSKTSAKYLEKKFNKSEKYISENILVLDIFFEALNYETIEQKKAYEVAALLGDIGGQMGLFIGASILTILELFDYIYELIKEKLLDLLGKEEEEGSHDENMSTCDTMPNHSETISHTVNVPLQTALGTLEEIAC", "format": "cell-based", "settings": "cultured mouse cortical neurons; n=8; read-out: IC50, dose-dependent blockade of ASIC currents"}, "[2]": {"assay": "Efficacious plasma and brain concentration in mice", "format": "in vivo", "text": "It is thus estimated that only a 10-fold increase in potency is necessary to achieve efficacious concentrations that are suitable for an acute therapeutic for stroke in humans. […]"}, "[3]": {"biological_target": "TRPM7 channels (Homo sapiens, UniProt Q96QT4)", "sequence (Q96QT4 whole entry)": "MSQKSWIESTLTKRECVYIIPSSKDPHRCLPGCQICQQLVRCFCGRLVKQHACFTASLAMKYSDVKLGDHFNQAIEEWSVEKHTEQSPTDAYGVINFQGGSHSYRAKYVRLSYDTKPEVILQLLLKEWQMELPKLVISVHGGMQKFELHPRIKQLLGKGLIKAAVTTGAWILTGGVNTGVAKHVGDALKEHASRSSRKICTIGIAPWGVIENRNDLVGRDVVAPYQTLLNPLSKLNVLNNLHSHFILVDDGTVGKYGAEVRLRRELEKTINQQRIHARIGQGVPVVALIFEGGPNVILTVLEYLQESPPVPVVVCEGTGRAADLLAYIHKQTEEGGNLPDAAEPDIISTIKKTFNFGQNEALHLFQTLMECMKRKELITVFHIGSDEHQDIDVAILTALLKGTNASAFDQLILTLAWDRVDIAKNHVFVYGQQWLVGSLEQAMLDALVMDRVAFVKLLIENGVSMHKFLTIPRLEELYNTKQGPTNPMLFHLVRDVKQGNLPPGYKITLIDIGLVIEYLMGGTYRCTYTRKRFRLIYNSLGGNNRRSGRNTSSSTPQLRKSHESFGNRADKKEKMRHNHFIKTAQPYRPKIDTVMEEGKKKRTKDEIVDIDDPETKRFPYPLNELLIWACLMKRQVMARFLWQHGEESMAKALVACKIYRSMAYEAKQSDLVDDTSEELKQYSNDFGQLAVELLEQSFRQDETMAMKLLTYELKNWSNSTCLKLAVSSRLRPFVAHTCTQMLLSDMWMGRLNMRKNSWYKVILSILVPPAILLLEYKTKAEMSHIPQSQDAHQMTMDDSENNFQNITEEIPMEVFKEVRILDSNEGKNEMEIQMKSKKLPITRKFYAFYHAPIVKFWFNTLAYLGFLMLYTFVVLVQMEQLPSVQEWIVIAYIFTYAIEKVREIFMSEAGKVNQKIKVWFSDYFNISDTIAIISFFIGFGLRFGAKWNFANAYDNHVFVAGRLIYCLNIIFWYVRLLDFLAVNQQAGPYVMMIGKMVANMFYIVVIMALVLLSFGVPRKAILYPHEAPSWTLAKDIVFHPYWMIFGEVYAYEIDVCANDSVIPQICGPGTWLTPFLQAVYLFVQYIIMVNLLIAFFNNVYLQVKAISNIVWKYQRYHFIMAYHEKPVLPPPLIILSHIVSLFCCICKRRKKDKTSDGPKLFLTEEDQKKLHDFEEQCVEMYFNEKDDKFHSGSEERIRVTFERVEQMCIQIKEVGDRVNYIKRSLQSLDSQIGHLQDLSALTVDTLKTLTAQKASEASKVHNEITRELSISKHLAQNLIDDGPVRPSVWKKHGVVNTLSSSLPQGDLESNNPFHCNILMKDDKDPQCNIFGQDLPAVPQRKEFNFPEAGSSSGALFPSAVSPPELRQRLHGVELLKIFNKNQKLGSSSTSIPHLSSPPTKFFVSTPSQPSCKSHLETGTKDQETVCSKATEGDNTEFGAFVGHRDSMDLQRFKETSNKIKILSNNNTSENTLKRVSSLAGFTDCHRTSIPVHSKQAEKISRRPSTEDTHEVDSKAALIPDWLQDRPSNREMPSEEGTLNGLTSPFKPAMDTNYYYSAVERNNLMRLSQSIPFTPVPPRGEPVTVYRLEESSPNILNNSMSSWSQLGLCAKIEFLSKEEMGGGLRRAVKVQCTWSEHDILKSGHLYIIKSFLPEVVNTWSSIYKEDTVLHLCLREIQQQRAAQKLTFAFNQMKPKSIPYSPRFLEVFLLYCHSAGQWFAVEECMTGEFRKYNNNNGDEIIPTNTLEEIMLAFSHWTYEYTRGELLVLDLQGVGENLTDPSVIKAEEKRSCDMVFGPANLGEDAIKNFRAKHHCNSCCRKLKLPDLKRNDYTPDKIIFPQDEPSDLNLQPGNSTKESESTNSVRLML", "assay": "Conductance of TRPM7 channels", "format": "cell-based"}, "[4]": {"format": "in vivo, rats", "settings": "n=11"}, "[5]": {"assay": "Mouse 60 min MCAO, intravenous injection, infarct volume", "format": "in vivo", "settings": "mice, intravenous injection 1, 3 or 5 hours after MCAO, FIG. 19"}, "[6]": {"biological_target": "T2, ASICs (Mus musculus, UniProt Q6NXK8)", "T2 construct": "endogenous in cells; host or cells: primary cortical neurons from E16 Swiss mice", "T2 sequence (Q6NXK8 1-526)": "T1 sequence (Q6NXK8 1-526)", "format": "cell-based", "settings": "100 µM amiloride; pH 6.0; n=6"}, "[7]": {"biological_target": "T3, ASIC2a (Homo sapiens, UniProt Q16515)", "T3 construct": "expressed in transfected cells; host or cells: CHO", "T3 sequence (Q16515 1-512)": "T1 sequence (Q925H0 1-512 partner) with T132S, E471D, M479V, A503T", "assay": "Blockade of ASIC 2a current expressed in CHO cells", "format": "cell-based", "settings": "CHO cells, FIG. 17"}, "[8]": {"biological_target": "T4, ASIC1a (Homo sapiens, UniProt P78348)", "T4 sequence (P78348 1-528)": "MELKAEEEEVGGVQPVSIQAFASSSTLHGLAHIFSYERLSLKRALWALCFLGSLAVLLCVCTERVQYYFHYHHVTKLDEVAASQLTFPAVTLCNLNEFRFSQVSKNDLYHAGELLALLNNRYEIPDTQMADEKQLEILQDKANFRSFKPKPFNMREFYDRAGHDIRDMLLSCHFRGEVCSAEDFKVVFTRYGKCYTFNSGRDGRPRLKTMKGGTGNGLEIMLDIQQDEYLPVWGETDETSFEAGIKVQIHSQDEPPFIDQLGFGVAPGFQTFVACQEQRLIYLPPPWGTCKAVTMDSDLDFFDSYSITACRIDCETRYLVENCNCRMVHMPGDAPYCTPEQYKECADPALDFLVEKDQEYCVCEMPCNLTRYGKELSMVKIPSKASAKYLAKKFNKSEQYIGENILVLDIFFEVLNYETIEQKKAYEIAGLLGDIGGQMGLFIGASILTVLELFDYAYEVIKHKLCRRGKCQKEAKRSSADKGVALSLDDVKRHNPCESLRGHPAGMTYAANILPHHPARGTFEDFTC", "assay": "Blockade of ASIC 1a current expressed in CHO cells", "format": "cell-based", "parameters": "expressed in transfected cells; host or cells: CHO", "settings": "CHO cells, FIG. 16"}},
  "note": "Numbering of substitutions follows the chain as printed. Like-named read-outs stand apart in the source and are kept apart here.",
  "data": [
    {"smiles": "N=C(N)NC(=O)c1nc(Cl)c(N)nc1N", "note": "[amiloride]", "values": [
      {"measurement": "IC50", "setting": "[1]", "value": "16.4 ± 4.1", "unit": "µM"},
      {"measurement": "total brain concentration at which efficacy can be achieved", "setting": "[2]; icv dose of 1 µl x 500 µM", "value": 12.5, "unit": "µM"},
      {"measurement": "plasma concentration at which efficacy can be achieved", "setting": "[2]; iv dose of 50 µl x 1mM", "value": 32.5, "unit": "µM"},
      {"measurement": "conductance of TRPM7 channels", "setting": "[3]", "value": "no effect"},
      {"measurement": "infarct volume", "setting": "[4]", "value": "229.7 ± 41.1", "unit": "mm^3"},
      {"measurement": "infarct volume", "setting": "[5]", "value": "effectively reduce infarct volume"},
      {"measurement": "peak amplitude of Ca^2+-mediated current, of control", "setting": "[6]", "value": "26% ± 2%"},
      {"measurement": "block of ASIC2a current", "setting": "[7]", "value": "dose-dependent"},
      {"measurement": "block of ASIC1a current", "setting": "[8]", "value": "dose-dependent"}
    ]}
  ]
}
